Measured values reported in PMC9144902, “Metal(II) Complexes of the Fluoroquinolone Fleroxacin: Synthesis, Characterization and Biological Profile” (Pharmaceutics, 2022).

Legend:
[1] = system: Bacillus subtilis ATCC 6633; experiment: Antimicrobial activity, MIC determination; format: cell-based; conditions: B. subtilis; 24-h incubation, 37°C
Procedure: (§1) The in vitro antimicrobial activity of the compounds was evaluated by determining the minimum inhibitory concentration (MIC) against the Gram-positive microorganisms Staphylococcus aureus ATCC 6538 (S. aureus) and Bacillus subtilis ATCC 6633 (B. subtilis) and the Gram-negative microorganism Xanthomonas campestris ATCC 1395 (X. campestris). The affinity of the compounds for bovine serum albumin (BSA) and human serum albumin (HSA) was studied by fluorescence emission spectroscopy, and the corresponding binding constants were determined. Furthermore, the interaction of the compounds with calf-thymus DNA (CT DNA) was investigated to determine the possible mode of interaction by the following methods: (i) UV–vis spectroscopy (where the DNA-binding constants of the complexes (Kb) were also determined), (ii) DNA-viscosity measurements, (iii) cyclic voltammetry and (iv) competitive DNA-binding studies with the classic intercalator ethidium bromide (EB) performed by fluorescence emission spectroscopy.
(§2) Three bacterial strains, one Gram(−) (X. campestris) and two Gram(+) (S. aureus and B. subtilis), were used in order to test the antimicrobial activity of the compounds.
(§3) The antimicrobial activity of the compounds was evaluated b y determining their respective MIC values towards one Gram–( –) (Xanthomonas campestris ATCC 1395 (X. campestris)) and two Gram–(+) (Staphylococcus aureus ATCC 6538 (S. aureus) and Bacillus subtilis ATCC 6633 (B. subtilis)) bacterial species. Cultures of these microbial strains were grown on a rich selective agar medium and stored at 4°C. The selective media used were Nutrient Agar or Broth for B. subtilis and S. aureus, and Yeast Mold Agar or Broth for X. campestris . Cells picked from the surface of the stored cultures were used to initiate liquid pre–cultures of the same selective medium at an initial turbidity of roughl y 1 McFarland unit. Pre–cultures were incubated for 24 h in a rotar y sh aking incubator and subsequently the y were used to inoculate the test cultures used for the determination of MIC at an initial turbidity of 0.5 McFarland units. The test cultures consisted of Mueller–Hinton broth (Deben Diagnostics Ltd) containing different concentrations of the compounds. Different concentrations were achieved as follows: the compounds were freshly dissolved in DMSO to a concentration of 1 mg/mL and they were diluted with DMSO, using the method of progressive double dilution. Therefore, working solutions with decreasing concentrations of the compounds under investigation were achieved. The working solutions were subsequently diluted to the final desired concentration b y addition to the growth medium at a proportion of 2:98. MIC values were determined as the lowest concentrations of the tested compounds that inhibited visible growth of each respective organism after a 24–h incubation [ S1]. Bacterial growth was determined b y measuring the turbidit y of appropriatel y diluted cultures at 600 nm with reference to equall y diluted sterile growth medium and the inhibition achieved was calculated b y comparing the turbidit y of each culture to the average of the turbidit y of three non–inhibited cultures. All test cultures were grown in triplicates and for the determination of MIC, growth had to be inhibited in at least two cultures of the triplicate. In cubation temperatur e at all stages was 37°C ex cept for X. campestris t h at was cultivated at 28°C [S2]. […]
(§4) The fluorescence spectra of the compounds were recorded under the same experimental conditions and presented a low–intensity emission band in the region 405–410 nm .

[2] = system: Staphylococcus aureus ATCC 6538; experiment: Antimicrobial activity, MIC determination; format: cell-based; conditions: S. aureus; 24-h incubation, 37°C
Procedure: as §1, §2, §3, §4

[3] = system: Xanthomonas campestris ATCC 1395; experiment: Antimicrobial activity, MIC determination; format: cell-based; conditions: X. campestris; 24-h incubation, 28°C
Procedure: as §1, §2, §3, §4

[4] = biological target: T1, bovine serum albumin (BSA) (Bos taurus, UniProt P02769); experiment: Albumin binding by tryptophan fluorescence emission quenching; conditions: for K(BSA), BSA-binding constant / kq(BSA), BSA-quenching constant: BSA 3 μM; for K(BSA), BSA-binding constant: buffer pH 7.0, Scatchard equation; for kq(BSA), BSA-quenching constant: buffer pH 7.0, λexc 295 nm, Stern–Volmer, τ0 = 10^–8 s; for BSA fluorescence, % of the initial fluorescence intensity (I/Io): λem,max = 342 nm, final value of titration (Figure S11)
T1 construct: purchased
Procedure: (§5) Serum albumins (Sas) are the most abundant serum proteins and play a role in the circulatory system, primarily in the transport of drugs and other bioactive small molecules through the bloodstream.
(§6) The SA-quenching constants (kq) for the compounds (Table 5) were calculated with the Stern–Volmer quenching equation (Equations (S2) and (S3)).
(§7) Albumin-binding constants (K) were calculated using the Scatchard equation (Equation (S4)). […]
(§8) S2. Interaction with serum albumins
(§9) The albumin–binding study for the compounds was carried out b y fluorescence emission

[5] = biological target: T2, human serum albumin (HSA) (Homo sapiens, UniProt P02768); experiment: as above; conditions: for K(HSA), HSA-binding constant / kq(HSA), HSA-quenching constant: HSA 3 μM; for K(HSA), HSA-binding constant: buffer pH 7.0, Scatchard equation; for kq(HSA), HSA-quenching constant: buffer pH 7.0, λexc 295 nm, Stern–Volmer, τ0 = 10^–8 s; for HSA fluorescence, % of the initial fluorescence intensity (I/Io): λem,max = 351 nm, final value of titration (Figure S10)
T2 construct: purchased
Procedure: as §5, §6, §7, §8, §9

[6] = system: CT DNA; experiment: Study of the DNA-interaction by cyclic voltammetry; format: binding, calf; conditions: for Epa(f), anodic potential / Epc(f), cathodic potential / Epa(b), anodic potential / Epc(b), cathodic potential: M(II)/M(I), 1:2 DMSO/buffer; for Epa(f), anodic potential / Epc(f), cathodic potential: absence of CT DNA; for Epa(b), anodic potential / Epc(b), cathodic potential: presence of CT DNA; for Kr/Kox, ratio of equilibrium DNA-binding constants (reduced/oxidized form): eq. S6
Procedure: Cyclic voltammetry was used to study the interaction of the complexes with CT DNA. An intercalative interaction will induce a positive shift for the electrochemical potential(s) of metal oxidation/reduction, whereas, in the case of electrostatic interaction, a negative shift in the potential(s) may occur. The cyclic voltammograms of the complexes in a 1:2 DMSO:buffer solution (0.33 mM) were recorded in the absence and presence of the CT DNA solution (Figure S13). The predominant electrochemical feature for all complexes is a positive shift in the potential in the presence of CT DNA (ΔEpc/a = (–30)–(+127) mV). Consequently, the intercalative nature of the interaction of the complexes with DNA can be inferred from the presented data.
In order to evaluate further the redox behavior of the complexes, the corresponding equilibrium constants were calculated by determining the ratio Kr/Kox in accordance to Equation (S6), where Kox and Kr are the DNA-binding constants for the oxidized and reduced form, respectively, of the metal ions. For all complexes, the Kr/Kox ratio is close to or above 1 (Table 7), showing the selective binding of DNA to the […] form of the complexes. […]
S3.3 Study of the DNA –interaction by cyclic vol ta mmetry
Cyclic voltammetr y can be also used in order to calculate the corresponding equilibrium constant for the redox process. The ratio of the DNA–binding constants for the reduced (K r) and oxidized forms (Kox) of t he complex es (Kr/Kox) w as calculat ed according t o eq. S6:
Δ = = 0.059 × lo gEE E K oxoo o (eq. S6) […]
where Eo and Eo are the formal potentials of M(II)/M(I) redox couple in the fully bound and […]
free complexes, respectivel y. Kox and Kr are the binding constants for the binding of the oxidized and reduced species to DNA, respectivel y [S8] . […]

T2 sequence (P02768 25-609): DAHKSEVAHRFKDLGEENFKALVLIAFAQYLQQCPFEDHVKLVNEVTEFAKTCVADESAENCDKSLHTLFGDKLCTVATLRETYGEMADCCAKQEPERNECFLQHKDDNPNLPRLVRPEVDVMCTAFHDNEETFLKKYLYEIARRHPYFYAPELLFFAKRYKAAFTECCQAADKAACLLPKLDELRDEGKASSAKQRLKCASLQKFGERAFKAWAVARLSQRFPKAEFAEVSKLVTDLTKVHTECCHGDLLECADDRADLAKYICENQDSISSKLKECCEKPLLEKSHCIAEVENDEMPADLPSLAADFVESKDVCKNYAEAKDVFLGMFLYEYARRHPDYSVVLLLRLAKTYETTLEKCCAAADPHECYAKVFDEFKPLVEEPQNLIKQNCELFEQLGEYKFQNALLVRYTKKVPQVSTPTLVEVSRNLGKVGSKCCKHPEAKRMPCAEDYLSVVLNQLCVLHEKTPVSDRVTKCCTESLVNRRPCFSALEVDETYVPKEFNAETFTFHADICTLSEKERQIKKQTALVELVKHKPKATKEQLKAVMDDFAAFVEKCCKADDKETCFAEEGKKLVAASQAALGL
T1 sequence (P02769 25-607): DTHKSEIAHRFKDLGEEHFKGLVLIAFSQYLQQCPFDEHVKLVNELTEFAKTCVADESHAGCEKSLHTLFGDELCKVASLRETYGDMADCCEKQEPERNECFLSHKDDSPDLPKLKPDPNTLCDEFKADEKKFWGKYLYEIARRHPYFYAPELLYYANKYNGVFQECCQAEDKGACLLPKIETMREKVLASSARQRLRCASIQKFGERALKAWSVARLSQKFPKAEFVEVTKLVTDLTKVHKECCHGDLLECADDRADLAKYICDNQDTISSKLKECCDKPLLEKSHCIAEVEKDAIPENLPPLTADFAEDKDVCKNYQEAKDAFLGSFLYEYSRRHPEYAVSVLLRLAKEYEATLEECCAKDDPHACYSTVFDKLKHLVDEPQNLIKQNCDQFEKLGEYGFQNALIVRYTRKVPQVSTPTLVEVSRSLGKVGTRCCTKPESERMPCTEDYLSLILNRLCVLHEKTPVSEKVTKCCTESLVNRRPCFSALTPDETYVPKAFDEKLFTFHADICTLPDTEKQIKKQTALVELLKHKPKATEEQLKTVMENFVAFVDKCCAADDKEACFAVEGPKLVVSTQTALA

Compound	MIC [1] [µg/mL]	MIC (values in parentheses) [1] [µM]	MIC [2] [µg/mL]	MIC (values in parentheses) [2] [µM]	MIC [3] [µg/mL]	MIC (values in parentheses) [3] [µM]	K(BSA), BSA-binding constant [4]	kq(BSA), BSA-quenching constant [4]	BSA fluorescence, % of the initial fluorescence intensity (I/Io) [4] [%]	K(HSA), HSA-binding constant [5]	kq(HSA), HSA-quenching constant [5]	HSA fluorescence, % of the initial fluorescence intensity (I/Io) [5] [%]	Epa(f), anodic potential [6] [mV]	Epc(f), cathodic potential [6] [mV]	Epa(b), anodic potential [6] [mV]	Epc(b), cathodic potential [6] [mV]	Kr/Kox, ratio of equilibrium DNA-binding constants (reduced/oxidized form) [6]
CN1CCN(c2c(F)cc3c(=O)c(C(=O)[O-])cn(CCF)c3c2F)CC1.CN1CCN(c2c(F)cc3c(=O)c(C(=O)[O-])cn(CCF)c3c2F)CC1.[Cu+2] [complex 1, [Cu(flrx)2]]	8	10.0	8	10.0	8	10.0	7.19(±0.21) × 10^4 M^−1	1.87(±0.09) × 10^13 M^−1s^−1	17.3	8.39(±0.27) × 10^4 M^−1	1.09(±0.08) × 10^13 M^−1s^−1	33.3	−504	−725	−462	−735	1.31
CN1CCN(c2c(F)cc3c(=O)c(C(=O)[O-])cn(CCF)c3c2F)CC1.CN1CCN(c2c(F)cc3c(=O)c(C(=O)[O-])cn(CCF)c3c2F)CC1.O.O.[Mn+2] [complex 2, [Mn(flrx)2(H2O)2]]	4	4.7	4	4.7	16	18.7	1.45(±0.04) × 10^5 M^−1	3.45(±0.16) × 10^13 M^−1s^−1	11.1	9.58(±0.39) × 10^4 M^−1	1.42(±0.04) × 10^13 M^−1s^−1	28.5	−455	−684	−466	−678	0.96
CN1CCN(c2c(F)cc3c(=O)c(C(=O)[O-])cn(CCF)c3c2F)CC1.CN1CCN(c2c(F)cc3c(=O)c(C(=O)[O-])cn(CCF)c3c2F)CC1.CO.CO.[Co+2] [complex 4, [Co(flrx)2(MeOH)2]]	8	9.3	4	4.6	16	18.6	1.02(±0.05) × 10^5 M^−1	1.34(±0.03) × 10^13 M^−1s^−1	26.3	7.68(±0.33) × 10^4 M^−1	6.05(±0.13) × 10^12 M^−1s^−1	44.3	−483	−724	−455	−735	1.15
CN1CCN(c2c(F)cc3c(=O)c(C(=O)[O-])cn(CCF)c3c2F)CC1.CN1CCN(c2c(F)cc3c(=O)c(C(=O)[O-])cn(CCF)c3c2F)CC1.CO.CO.[Ni+2] [complex 5, [Ni(flrx)2(MeOH)2]]	4	4.6	4	4.6	16	18.6	1.75(±0.07) × 10^5 M^−1	2.37(±0.13) × 10^13 M^−1s^−1	19.2	5.76(±0.28) × 10^4 M^−1	1.09(±0.03) × 10^13 M^−1s^−1	34.1	−495	−706	−501	−701	0.99
